In the C3SDB collision cross section collection:
Several values for one entry are separate records, joined by “and”; a condition that tells them apart may be missing. Equal entries are not always repeated. Structures can show the parent of a compound that is named as a salt.

Details: instrument: DT, single field, calibrated with ESI Low Concentration Tuning Mix (Agilent)

Row | collision cross section (N2) ([M+H]+) | collision cross section (N2) ([M-H]-) | collision cross section (N2) ([M+Na]+) | SMILES | also measured
1 | 128.2 Å² and 134.2 Å² | 118.4 Å² |  | NCCS(=O)(=O)O [TAURINE] | 
2 | 130.5 Å² |  |  | CC(=O)OC[C@H](N)C(=O)O [O-ACETYLSERINE] | 
3 | 194.8 Å² | 186.5 Å² | 202 Å² | Nc1ncnc2c1ncn2[C@H]1C[C@H](O)[C@@H](COP(=O)(O)OP(=O)(O)OP(=O)(O)O)O1 [DEOXYADENOSINE TRIPHOSPHATE] | collision cross section (N2) ([M+Na-2H]-): 185.9 Å²
4 |  |  | 140.9 Å² | CC(=O)N[C@@H](CS)C(=O)O [N-ACETYLCYSTEINE] | 
5 |  | 173.1 Å² |  | Nc1ncnc2c1ncn2[C@@H]1O[C@H](COP(=O)(O)O)[C@@H](O)[C@H]1O [ADENOSINE-MONOPHOSPHATE] | collision cross section (N2) ([M+Na-2H]-): 179.5 Å²
6 | 167.8 Å² | 162.1 Å² | 167 Å² | N[C@@H](CCC(=O)N[C@@H](CS)C(=O)NCC(=O)O)C(=O)O [GLUTATHIONE REDUCED] | collision cross section (N2) ([M+Na-2H]-): 164.8 Å²
7 |  | 203.1 Å² | 197.5 Å² | C[C@H](CCC(=O)O)[C@H]1CC[C@H]2[C@@H]3[C@H](O)C[C@@H]4C[C@H](O)CC[C@]4(C)[C@H]3C[C@H](O)[C@]12C [CHOLATE] | 
8 |  | 123.2 Å² |  | NCCOP(=O)(O)O [O-PHOSPHOETHANOLAMINE] | 
9 |  | 143.3 Å² |  | O=S(=O)(O)Oc1c[nH]c2ccccc12 [INDOXYL SULFATE] | 
10 |  | 120.9 Å² |  | O=C(O)CCC(=O)C(=O)O [OXOGLUTARATE] | 
11 | 134.9 Å² | 134 Å² | 137.5 Å² | NC[C@H](O)CC[C@H](N)C(=O)O [5-HYDROXYLYSINE] | 
12 |  | 146.5 Å² and 146.6 Å² | 158.1 Å² | O=P(O)(O)OC[C@H]1OC(O)[C@H](O)[C@@H](O)[C@@H]1O (stereo not given in full) [GLUCOSE 6-PHOSPHATE] | collision cross section (N2) ([M+Na-2H]-): 156.9 Å²
13 | 196.9 Å² |  |  | CC(=O)OCC(=O)[C@H]1CC[C@H]2[C@@H]3CCC4=CC(=O)CC[C@]4(C)[C@H]3CC[C@]12C [DEOXYCORTICOSTERONE ACETATE] | 
14 | 123.8 Å² |  |  | CC(C)(N)C(=O)O [2-AMINOISOBUTYRATE] | 
15 | 129.9 Å² |  |  | CC(C)(CO)[C@@H](O)C(=O)NCCC(=O)O [PANTOTHENATE] | 
16 |  | 142.6 Å² | 150.1 Å² | CSCC[C@H](NC(C)=O)C(=O)O [N-ACETYLMETHIONINE] | 
17 |  | 140.1 Å² |  | CNC[C@H](O)c1ccc(O)c(O)c1 [EPINEPHRINE] | 
18 | 136 Å² | 132 Å² |  | CCCC[C@H](N)C(=O)O [NORLEUCINE] | 
19 |  | 159.1 Å² | 171.7 Å² | Nc1nc(=O)c2ncn([C@H]3C[C@H](O)[C@@H](CO)O3)c2[nH]1 [DEOXYGUANOSINE] | collision cross section (N2) ([M+K]+): 171.4 Å²

The remaining lines, values behind:

Row | SMILES | collision cross section (N2) ([M+H]+) | collision cross section (N2) ([M-H]-) | collision cross section (N2) ([M+Na]+) | also measured
20 | CC(=O)c1ccc(O)cc1O [2',4'-DIHYDROXYACETOPHENONE] | 127.2 Å² | 126.3 Å² |  | 
21 | O=C1CC(C(=O)O)NC(=O)N1 (stereo not given) [DIHYDROOROTATE] |  | 125.2 Å² |  | 
22 | O=P(O)(O)OC1C(OP(=O)(O)O)C(OP(=O)(O)O)C(OP(=O)(O)O)C(OP(=O)(O)O)C1OP(=O)(O)O (stereo not given) [PHYTATE] | 215.8 Å² | 195.4 Å² |  | collision cross section (N2) ([M+Na-2H]-): 201.3 Å²
23 | N[C@@H](CCOC(=O)CCC(=O)O)C(=O)O [O-SUCCINYL-HOMOSERINE] | 145.9 Å² |  | 145.7 Å² | collision cross section (N2) ([M+Na-2H]-): 145.8 Å²
24 | OCc1cccc(O)c1 [3-HYDROXYBENZYL ALCOHOL] |  | 122.3 Å² |  | 
25 | O=C1O[C@H]([C@@H](O)CO)C(O)=C1O [ASCORBATE] |  | 127.7 Å² | 141.6 Å² | 
26 | c1ncc2[nH]cnc2n1 [PURINE] | 121.9 Å² | 114.3 Å² |  | 
27 | N[C@@H](COP(=O)(O)O)C(=O)O [O-PHOSPHOSERINE] |  |  | 140.8 Å² | 
28 | O=c1nc[nH]c2c1ncn2[C@@H]1O[C@H](COP(=O)(O)OP(=O)(O)OP(=O)(O)O)[C@@H](O)[C@H]1O [INOSINE TRIPHOSPHATE] | 193.6 Å² | 189.2 Å² | 197 Å² | collision cross section (N2) ([M+Na-2H]-): 182.8 Å²
29 | C[N+](C)(C)CCOP(=O)([O-])OP(=O)(O)OC[C@H]1O[C@@H](n2ccc(N)nc2=O)[C@H](O)[C@@H]1O [CITICOLINE] | 198.3 Å² | 205.9 Å² | 207.8 Å² | collision cross section (N2) ([M+Na-2H]-): 210.2 Å²
30 | CC(O)(CC(=O)O)CC(=O)O [3-HYDROXYMETHYLGLUTARATE] |  | 126.5 Å² | 135.9 Å² | 
31 | NCC[Se][Se]CCN [SELENOCYSTAMINE] | 135.6 Å² |  | 138.6 Å² | 
32 | OC[C@H]1O[C@H](OC[C@H]2O[C@H](OC[C@H]3O[C@H](O[C@]4(CO)O[C@H](CO)[C@@H](O)[C@@H]4O)[C@H](O)[C@@H](O)[C@@H]3O)[C@H](O)[C@@H](O)[C@H]2O)[C@H](O)[C@@H](O)[C@H]1O [STACHYOSE] |  | 224.1 Å² | 235.1 Å² | 
33 | C[C@H](CCC(=O)NCCS(=O)(=O)O)[C@H]1CC[C@H]2[C@@H]3CC[C@@H]4C[C@H](O)CC[C@]4(C)[C@H]3CC[C@]12C [LITHOCHOLYLTAURINE] |  | 206.6 Å² | 213.1 Å² | 
34 | O=C(O)C(O)Cc1ccc(O)cc1 (stereo not given) [HYDROXYPHENYLLACTATE] |  | 141.9 Å² | 144.2 Å² | 
35 | O=P(O)(O)OCC(O)CO (stereo not given) [GLYCEROL 3-PHOSPHATE] |  | 127.2 Å² | 137.1 Å² | 
36 | CCCCCCCCCCCCCCCCCCCCCCC(=O)[O-] [TRICOSANOATE] |  | 196.9 Å² | 204.8 Å² | 
37 | O=C(O)C1=CC(=O)[C@@H](O)[C@H](O)C1 [3-DEHYDROSHIKIMATE] |  | 132 Å² | 149.1 Å² | 
38 | O=C(O)C1CCCCN1 (stereo not given) [PIPECOLATE] | 127.7 Å² and 128 Å² | 128.3 Å² and 128.9 Å² | 138.8 Å² and 139.4 Å² | 

Row | SMILES | collision cross section (N2) ([M+H]+) | collision cross section (N2) ([M-H]-) | collision cross section (N2) ([M+Na]+) | also measured
39 | CCCCCCCCCCCCCCCC(=O)O [PALMITATE] |  |  | 173.2 Å² | 
40 | O=C(O)/C=C/c1ccc(O)cc1 [4-COUMARATE] |  | 131.1 Å² |  | 
41 | OC1OC[C@@H](O)[C@H](O)[C@@H]1O (stereo not given in full) [LYXOSE] |  |  | 136.8 Å² | 
42 | O=C(O)Cc1cnc[nH]1 [4-IMIDAZOLEACETATE] | 123.9 Å² |  |  | 
43 | O=C(CO)[C@@H](O)[C@H](O)[C@H](O)COP(=O)(O)O [FRUCTOSE 6-PHOSPHATE] |  | 144.1 Å² | 154.4 Å² | collision cross section (N2) ([M+Na-2H]-): 154.9 Å²
44 | O=c1ccn([C@@H]2O[C@H](COP(=O)(O)O)[C@@H](O)[C@H]2O)c(=O)[nH]1 [URIDINE MONOPHOSPHATE] | 165.7 Å² | 161.2 Å² | 172.3 Å² | collision cross section (N2) ([M+Na-2H]-): 163.6 Å²
45 | O=C(O)c1ccc[nH]1 [PYRROLE-2-CARBOXYLATE] |  | 113.8 Å² |  | 
46 | O=c1cccc(O)[nH]1 [2,6-DIHYDROXYPYRIDINE] |  | 113.8 Å² |  | 
47 | O=c1nc[nH]c2c1ncn2[C@@H]1O[C@H](COP(=O)(O)OP(=O)(O)O)[C@@H](O)[C@H]1O [INOSINE 5'-DIPHOSPHATE] | 186.6 Å² |  | 184 Å² | collision cross section (N2) ([M+Na-2H]-): 180 Å²
48 | CC(=O)NCCCNCCCCNCCCN [N1-ACETYLSPERMINE] | 158 Å² |  | 162 Å² | 
49 | CCCCCCCCCCC/C=C\CCCCC(=O)[O-] [PETROSELINATE] |  | 175.6 Å² |  | 
50 | C[C@@H]1NCCc2cc(O)c(O)cc21 [SALSOLINOL] | 142.7 Å² | 139.4 Å² |  | 
51 | NC[C@H](O)c1ccc(O)cc1 [P-OCTOPAMINE] |  |  | 147.3 Å² | 
52 | Cn1cnc2c(ncn2[C@@H]2O[C@H](CO)[C@@H](O)[C@H]2O)c1=N [1-METHYLADENOSINE] | 160 Å² and 164.7 Å² | 162.7 Å² | 170.7 Å² | 
53 | NC(=O)c1ccc[n+]([C@@H]2O[C@H](COP(=O)(O)OP(=O)(O)OC[C@H]3O[C@@H](n4cnc5c(N)ncnc54)[C@H](OP(=O)(O)O)[C@@H]3O)[C@@H](O)[C@H]2O)c1 [NADP] | 232.6 Å² | 230.7 Å² and 230.9 Å² | 240.9 Å² | collision cross section (N2) ([M+H2O-H]-): 243.9 Å²; collision cross section (N2) ([M+Na-2H]-): 231.5 Å² and 231.8 Å²
54 | NCCCCNCCCN [SPERMIDINE] | 131.4 Å² and 131.6 Å² |  | 136.1 Å² and 136.5 Å² | 
55 | O=C(O)Cc1c[nH]c2ccccc12 [INDOLE-3-ACETATE] | 135.9 Å² |  | 143.5 Å² | 
56 | OC[C@H]1O[C@H](O[C@H]2O[C@H](CO)[C@@H](O)[C@H](O)[C@H]2O)[C@H](O)[C@@H](O)[C@@H]1O [TREHALOSE] |  | 169.9 Å² | 175.7 Å² | collision cross section (N2) ([M+K]+): 179.7 Å²
